Laboratory results as given in PubChem BioAssay (NCI).
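Values below derive from 48-hour exposures of cells grown in 96-well plates, with endpoints linearly interpolated between the two concentrations bracketing the appropriate inhibition level. GI50 = concentration required for 50% inhibition of growth. TGI marks complete inhibition of growth.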

Legend:
Assay in all cases: NCI tumour cell line growth inhibition, 48 h
786-0 renal = system: 786-0 renal
A498 renal = system: A498 renal
EKVX NSCLC = system: EKVX NSCLC
K-562 leukemia = system: K-562 leukemia
M14 melanoma = system: M14 melanoma
OVCAR-8 ovarian = system: OVCAR-8 ovarian
SF-295 CNS = system: SF-295 CNS
SR leukemia = system: SR leukemia
HS 578T breast = system: HS 578T breast
T-47D breast = system: T-47D breast

Row | SMILES | TGI (786-0 renal) | TGI (A498 renal) | TGI (EKVX NSCLC) | TGI (K-562 leukemia) | TGI (M14 melanoma) | TGI (OVCAR-8 ovarian) | TGI (SF-295 CNS) | TGI (SR leukemia) | GI50 (786-0 renal) | GI50 (A498 renal) | GI50 (HS 578T breast) | TGI (HS 578T breast) | GI50 (K-562 leukemia) | GI50 (M14 melanoma) | GI50 (OVCAR-8 ovarian) | GI50 (SF-295 CNS) | GI50 (SR leukemia) | GI50 (T-47D breast) | TGI (T-47D breast) | GI50 (EKVX NSCLC)
1 | CCOC(=O)C1=C(C)N(NC(=O)c2ccccc2)C2(O)CCCC12C(=O)OCC (stereo not given) | > 100 µM | > 100 µM | > 100 µM | > 100 µM | > 100 µM | > 100 µM | > 100 µM | > 100 µM | – | – | – | – | – | – | – | – | – | – | – | –
2 | Cn1cc(C2=C(c3c4n(c5ccccc35)CCC(CN)CC4)C(=O)NC2=O)c2ccccc21 (stereo not given) | 8.55 µM | 7.55 µM | – | 11.9 µM | 8.26 µM | 9.8 µM | 8.02 µM | 16.2 µM | 4.58 µM | 3.96 µM | 2.56 µM | 8.5 µM | 4.72 µM | 4.29 µM | 4.82 µM | 4.01 µM | 5.14 µM | 4.52 µM | 9.87 µM | –
3 | CSC(=S)NNC(=O)c1ccncc1 | 30.8 µM | > 100 µM | 57.6 µM | 38.5 µM | 42.3 µM | 40.6 µM | 46.9 µM | 47.3 µM | – | – | – | – | – | – | – | – | – | – | – | –
4 | O=C1c2ccccc2C(=O)c2nc(-c3ccccc3)c(-c3ccccc3)nc21 | > 100 µM | > 93.6 µM | > 100 µM | > 100 µM | > 100 µM | > 100 µM | > 100 µM | – | – | – | – | – | – | – | – | – | – | – | – | –
5 | COC(=O)C1C(=O)O[C@@H](c2ccc(OC)cc2OC)C1C(=O)OC (stereo not given in full) | > 100 µM | > 100 µM | > 100 µM | > 100 µM | > 100 µM | > 100 µM | > 100 µM | > 100 µM | – | – | – | – | – | – | – | – | – | – | – | –
6 | O=C(O)/C(Cl)=C(\Cl)C(=O)Nc1ccccc1 | > 100 µM | > 100 µM | > 100 µM | > 100 µM | > 100 µM | – | > 100 µM | > 100 µM | – | – | – | – | – | – | – | – | – | – | – | –
7 | CC1C(=O)N(C)C2(CO)C(=O)O[C@H](C)C12O (stereo not given in full) | > 100 µM | – | > 100 µM | > 100 µM | > 100 µM | > 100 µM | > 100 µM | > 100 µM | – | – | – | – | – | – | – | – | – | – | – | –
8 | COc1cc2c(cc1OC)[C@@]1(C)C(=O)c3cc4c(cc3[C@H]1N(C)C2=O)OCO4 | > 100 µM | 90.7 µM | > 100 µM | > 100 µM | > 100 µM | > 100 µM | > 100 µM | – | 54.3 µM | 18.6 µM | 41.1 µM | > 100 µM | 47.6 µM | 82.6 µM | 29.3 µM | 43.3 µM | – | 37.9 µM | > 100 µM | 55 µM
9 | CCC[CH2][Sn]([CH2]CCC)([S]C1=NCCS1)[S]C1=NCCS1 | 0.663 µM | 1.31 µM | 2.71 µM | 1.05 µM | 1.24 µM | 1.6 µM | 2.02 µM | – | 0.22 µM | 0.507 µM | – | – | 0.0655 µM | 0.315 µM | 0.397 µM | 0.73 µM | – | – | – | 1.34 µM
10 | CC1OC(O)CC(OC(=O)c2ccccc2)C1OC(=O)c1ccccc1 (stereo not given) | 82.7 µM | > 100 µM | – | 57.5 µM | 30.3 µM | 31.6 µM | > 100 µM | 37.1 µM | – | – | – | – | – | – | – | – | – | – | – | –
11 | Cc1ccc(S(=O)(=O)N/N=C(\C(=O)Nc2cccc([N+](=O)[O-])c2)c2nc3ccc([N+](=O)[O-])cc3[nH]c2=O)cc1 | > 100 µM | > 100 µM | > 100 µM | > 100 µM | > 100 µM | > 100 µM | > 100 µM | > 100 µM | – | – | – | – | – | – | – | – | – | – | – | –
12 | NC(=O)Oc1cc(OC(N)=O)cc(N(CCCl)CCCl)c1 | 22.8 µM | 29.3 µM | – | > 100 µM | 30.9 µM | 67.6 µM | > 100 µM | > 100 µM | 4.28 µM | 12.4 µM | 23.2 µM | 76.3 µM | 10 µM | 5.74 µM | 5.74 µM | 2.89 µM | 1.04 µM | 7.78 µM | > 100 µM | –
13 | O=C(C=Nc1ccccc1C(=O)[O-])c1cccs1.O=C(C=Nc1ccccc1C(=O)[O-])c1cccs1.[Cu+2] | > 100 µM | > 100 µM | – | > 100 µM | > 100 µM | > 100 µM | > 100 µM | > 100 µM | – | – | – | – | – | – | – | – | – | – | – | –
14 | COc1ccc(Nc2ccnc(NCCCNc3ccnc4cc(Cl)ccc34)n2)cc1 | 2.93 µM | 2.54 µM | – | – | 0.461 µM | 5.16 µM | 2.36 µM | 0.912 µM | 1.49 µM | 0.659 µM | 1.46 µM | 3.83 µM | – | 0.196 µM | 1.5 µM | 1.12 µM | 0.254 µM | 1.55 µM | 3.71 µM | –
15 | CNC1C(O)CC(OC2C/C=C(\C)C/C(C)=C/C=C/CCC(C)CNC(=O)/C=C/C=C/C2C)OC1C (stereo not given) | 0.294 µM | 3.24 µM | 3 µM | 0.184 µM | 0.773 µM | 1.18 µM | 0.682 µM | – | – | – | – | 1.85 µM | – | – | – | – | – | – | 3.18 µM | –
16 | COc1ccc(-c2nc(-c3nc4cc(C)c(C)cc4[nH]3)cc3c2[nH]c2ccccc23)cc1 | 5.93 µM | 42.4 µM | – | 20.9 µM | 24.8 µM | > 100 µM | – | 7.17 µM | 2.6 µM | 14.4 µM | 4.6 µM | > 100 µM | 3.36 µM | 4.16 µM | 3.46 µM | – | 2.33 µM | 3.09 µM | 7.92 µM | –
17 | CCOC(=O)c1cc2ncccc2c2ccccc12 | > 100 µM | – | > 100 µM | > 100 µM | > 100 µM | > 100 µM | > 100 µM | > 100 µM | – | – | – | > 100 µM | – | – | – | – | – | – | > 100 µM | –
18 | CCCCCCCCCC(=O)OCC1OC(n2cc(F)c(=O)[nH]c2=O)C(N)C(OC(=O)CCCCCCCCC)C1O (stereo not given) | 32.9 µM | 31.6 µM | 34.1 µM | 36.7 µM | 34.3 µM | 34.6 µM | 31.9 µM | 45.3 µM | – | – | – | – | – | – | – | – | – | – | – | –
19 | CCC(=C(c1ccc(OCc2ccccc2)cc1)c1ccc(OCc2ccccc2)cc1)c1ccc(OC)cc1 | > 100 µM | – | > 100 µM | > 100 µM | > 100 µM | > 100 µM | > 100 µM | > 100 µM | – | – | – | – | – | – | – | – | – | – | – | –
